Values of other authors, collected in patent EP1754488A1, “Methods and compositions for non-viral gene therapy for treatment of hyperproliferative diseases” (Introgen Therapeutics, Inc., priority 1999, dated 2000).
Where a name gives a salt, the structure may show the parent alone. Blank lines part the entries; values can stand above or below the molecule they belong to. *1 amine or outer side, *2 acyl side, *3 side chain or, on linkers, in order; H or OH if unused. Where a SMILES comes first, the peptide text is derived from it. Bridges are numbered along the chain shown (N, C = ends). Roman numbers before positions name the chains, in order. [ ]: non-standard residue; d: D form. Actinocin(9to1) = Cc1c2oc3c(C)ccc(C(=O)[*:1])c3nc-2c(C(=O)[*:2])c(N)c1=O; NMeV = CN[C@H](C(=O)O)C(C)C; Sar = CNCC(=O)O

Legend:
multiple myeloma = settings: oral administration

SMILES: O=NN(CCCl)C(=O)NC1CCCCC1 [Lomustine, 1-(2-chloro-ethyl)-3-cyclohexyl-1 nitrosourea]
radioactivity excreted in the form of degradation products within 24 hours (oral radioactive lomustine, 30 mg/m^2 to 100 mg/m^2): about half of the radioactivity

SMILES: COc1cccc2c1C(=O)c1c(O)c3c(c(O)c1C2=O)C[C@@](O)(C(C)=O)C[C@@H]3O[C@H]1C[C@H](N)[C@H](O)[C@H](C)O1 [Daunorubicin, 5,12-Naphthacenedione, (8S-cis)-8-acetyl-10-[(3-amino-2,3,6-trideoxy-a-L-lyxo-hexanopyranosyl)oxy]-7,8,9,10-tetrahydro-6,8,11-trihydroxy-10-methoxy-, hydrochloride]
half-life of distribution (in vivo): 0.75 h

SMILES: N[C@@H](Cc1ccc(N(CCCl)CCCl)cc1)C(=O)O [Melphalan, 4-[bis(2-chloroethyl)amino]-L-phenylalanine]
patients showing a favorable response (multiple myeloma): about one third to one half of the patients

excreted / detected intact in the urine (in vivo): Approximately 15% | half-life of disappearance from plasma after distribution (first) (intravenous injection): approximately 1 hours | half-life of disappearance from plasma after distribution (second) (intravenous injection): ~72000 s
SMILES: CC[C@]1(O)C[C@@H]2CN(CCc3c([nH]c4ccccc34)[C@@](C(=O)OC)(c3cc4c(cc3OC)N(C)[C@H]3[C@@](O)(C(=O)OC)[C@H](OC(C)=O)[C@]5(CC)C=CCN6CC[C@]43[C@@H]65)C2)C1 [Vinblastine]

SMILES: Cc1c2oc3c(C)ccc(C(=O)N[C@@H]4C(=O)N[C@H](C(C)C)C(=O)N5CCC[C@H]5C(=O)N(C)CC(=O)N(C)[C@@H](C(C)C)C(=O)O[C@@H]4C)c3nc-2c(C(=O)N[C@@H]2C(=O)N[C@H](C(C)C)C(=O)N3CCC[C@H]3C(=O)N(C)CC(=O)N(C)[C@@H](C(C)C)C(=O)O[C@@H]2C)c(N)c1=O [Actinomycin D] (I: T[dV]P[Sar][NMeV] / II: T[dV]P[Sar][NMeV]; ester I:1-I:C, II:1-II:C; linker I:N-II:N via Actinocin(9to1))
excreted / detected intact in the urine (in vivo): 10% | excreted intact into the bile (in vivo): Half of the dose
